Patent US11832638B2, “N-acyl derivatives of gamma amino-butyric acid and beta alanine as food flavouring compounds” (GIVAUDAN SA, priority 2012, dated 2023)

What was measured:
[1] = Strawberry flavoured sugar sweetened yoghurt; details: 2 ppm, 1.5% fat yoghurt base, 8% sucrose, strawberry flavour 0.015%
From the text: Strawberry Flavoured Sugar Sweetened Yoghurt
The base consisted of a 1.5% fat yoghurt base, sweetened with 8% sucrose by weight, flavoured with a proprietary strawberry flavour @ 0.015%.

Test in vanilla milk = details: 2 ppm, milk 0.15% fat, 4% sucrose, Vaniline flavour 10 ppm + vanilla ext. 0.03%
From the text: Base: Milk 0.15% fat, sweetened with 4% sucrose by weight, flavoured with proprietary
Vaniline flavour @ 10 ppm+Vanilla ext. @ 0.03%

[2] = Test in peach flavoured drink; details: 1 ppm, water, 8% sugar, 0.1% citric acid, peach flavour 0.05%
From the text: Test in Peach Flavoured Drink:
Base is water, 8% sugar, 0.1% citric acid, and proprietary peach flavour at 0.05%

[3] = Chocolate milk with different fat content
Procedure: Chocolate Milk With Different Fat Content
In a chocolate milk 1.8% and 3% fat C18:2-gaba was added at 0.5 and 1 ppm.
(§1) Samples were evaluated by expert tasters. Tasters were asked to describe the samples focusing on authentic taste, mouthfeel, fullness, salivation, sweetness, juiciness, richness, long lastingness and fattiness.

[4] = Mango flavoured still beverage with different levels of juice; details: 1 ppm, 8% sucrose, 0.1% citric acid, mango flavor 0.05%
Procedure: Mango Flavoured Still Beverage Containing Different Levels Of Juice.
In a Mango flavoured still beverage, sweetened with 8% sucrose and containing 0.1% citric acid and 1%, 4% and 6% clear mango juice flavoured with a proprietary Mango flavour @ 0.05%, C18:2-gaba was added, as such.
All samples were evaluated by expert tasters. Tasters were asked to describe the samples focusing on authentic taste, juicy mouthfeel, enhancement, richness, juiciness, long lastingness, salivation, sweetness.
In a Mango flavoured still beverage, sweetened with 8% sucrose & containing 0.1% citric acid and 1% clear mango juice flavoured with proprietary Mango flavour @ 0.05%, C18:2-gaba was added, as such.
Base is water, 8% sucrose, 0.1% citric acid, 1% clear mango juice (very low juice %) , flavoured with Mango flavor, dosed at 0.05%
In a Mango flavoured still beverage, sweetened with 8% sucrose & containing 0.1% citric acid and 4% clear mango juice flavoured with Mango flavour @ 0.05% , C18:2-gaba and C18:2-Pro were added, as such (separate) and in combination.
Base is water, 8% sucrose, 0.1% citric acid, 4% clear mango juice (30% reduced juice), flavoured with Mango flavor, dosed at 0.05%
A Mango-flavoured still beverage, sweetened with 8% sucrose & containing 0.1% citric acid and 6% clear mango juice flavoured with Mango flavour @ 0.05%, C18:2-gaba
Base is water, 8% sucrose, 0.1% citric acid, 6% clear mango juice (full juice), flavoured with Mango flavor, dosed at 0.05%.

[5] = Tasting in fried potato snack product with cheese seasoning; details: fried potato base 35% fat
Procedure: Snack Product A snack product consisting of a fried potato base, containing 35% fat and flavored with cheese seasoning containing salt, MSG, dairy, organic acids, sugars, and a flavour formulation. The following compounds were added to the snack product at the indicated levels and the tasting results arc reported: […]

[6] = Test on menthol fondant (1%); details: 2 ppm, fondant 65%, sugar syrup 34%, menthol flavour 1%
From the text: Test on Menthol Fondant (1%)
Base is Fondant 65%, sugar syrup 34% and a proprietary menthol flavour at 1%

[7] = Tasting in standard chicken bouillon base; details: 0.5 PPM in standard chicken bouillon base, 0.7% salt, 0.5% fat
Procedure: (§2) The following formulations were prepared and tasted by trained panelists.
Standard Chicken bouillon base, 0.7% salt, 0.5% fat

[8] = Test on organic acids in a beverage; details: 1 ppm, water, 7% sucrose
Procedure: Testing With Beverages Containing Organic Acids From 0.01% to 7%
Test 18:2 Gaba on Organic Acids in a Beverage.
In a solution containing water, 7% sucrose by weight, and different organic acids, C18:2-gaba was added at 1 ppm. We observed taste effects on the acid perception upon addition of C18:2-gaba.
Base is water, 7% Sucrose by weight, Tartaric acid at 0.121% by weight
Base is water, 7% Sucrose by weight, Malic acid at 0.1081% by weight
Base is water, 7% Sucrose by weight, Citric acid at 0.1% by weight
Base is water, 7% Sucrose by weight, Fumaric acid at 0.0936% by weight

Test on Eru Prestige = details: 0.5 ppm
[9] = Calve salad dressing low fat; details: 0.5 ppm
From the text: Calve Salad Dressing Low Fat:
Base is Calve salad dressing (market product)

[10] = Vanilla flavoured milk 3.0% fat; details: 2 ppm, 4% sugar, vanillin 10 ppm, vanilla extract 0.03%
Procedure: Vanilla Flavoured Milk 3.0% Fat
In a 3% fat milk drink, sweetened with 4% sucrose by weight, flavoured with Vaniline @ 10 ppm and a Vanilla extract @ 0.03% C18:2-gaba, was added at 0.5 or 2 ppm.
as §1
Base: Milk 3% fat, 4% sugar, vanillin 10 ppm, vanilla extract 0.03%

[11] = Tasting in butter (Blueband halvarine); details: 1 ppm in Blueband halvarine 39% fat 0.35% salt
Procedure: as §2
Blueband “halvarine” 39% fat 0.35% salt
C18:2-gaba added at 1 ppm.

[12] = Test in pear flavoured drink; details: 1 ppm, water, 7% sugar, 0.1% citric acid, pear flavour 0.025%
From the text: Test in Pear Flavoured Drink:
Base: water, 7% sugar, 0.1% citric acid, proprietary pear flavour at 0.025%

Soy milk = details: 2 ppm, 5% sucrose, milk flavor 0.1%
Procedure: In a soy milk sweetened with 5% sucrose by weight, flavoured with a proprietary milk flavour at a dosage of 0.1%, C18:2-gaba was added at 2 ppm
Samples were evaluated by expert tasters. Tasters were asked to describe the samples focusing on authentic taste , mouthfeel, fullness, salivation, sweetness, juiciness, richness, long lastingness and fattiness.

[13] = Tasting of chicken filet fried in oil; details: 2.0 PPM in 135 gram frying oil (82% fat)
Procedure: Differentiator high temperature 100-250 degrees Celsius in a frying in oil process
C18:2-gaba @ 2.0 PPM in 135 gram frying oil (blue band 82% Fat) 450 gram chicken filet 2 minutes high fire and 5 minutes medium fire.

CCCCC/C=C\C/C=C\CCCCCCCC(=O)NCCCC(=O)O [C18:2-gaba]
taste description [1]: very creamy and fresh strawberry | taste description (Test in vanilla milk): fatty, long lasting authentic vanilla, vanilla bean taste is enhanced | taste description [2]: fruity peach, long lasting, juicy and fatty skin like very authentic | description by expert tasters ([3]; 0.5 ppm, chocolate milk 1.8% fat): stronger cocoa note, more chocolate vs cocoa | description by expert tasters ([3]; 0.5 ppm, chocolate milk 3% fat): very creamy, enhanced cocoa note | description by expert tasters ([3]; 1 ppm, chocolate milk 1.8% fat): very creamy, chocolate, long-lasting creamy and chocolate taste | description by expert tasters ([3]; 1 ppm, chocolate milk 3% fat): very creamy, lasting, sweet, almost taste like chocolate ice cream | description by expert tasters ([4]; 1% clear mango juice): fatty skin-like, very juicy, authentic mango, much more mouthfeel, long lasting mango taste, mouthfeel is close to the full juice product | description by expert tasters ([4]; 4% clear mango juice): fatty skin-like, very juicy, authentic mango, long lasting mango taste, more mouthfeel than the full juice product | description by expert tasters ([4]; 6% clear mango juice (full juice)): fatty skin-like, very thick juicy, authentic mango, long lasting mango taste, rich | tasting result ([5]; 0.5 ppm): increased dairy, cheesy | tasting result ([5]; 1 ppm): Fatty full, cheesy, cheese crust, long lasting | taste description [6]: increased menthol impact, stronger cooling more sweet, long lasting, fresh | tasting result (trained panelists) [7]: Strong, Salty, Umami, mouthfeel | taste effects on the acid perception ([8]; citric acid 0.1% by weight): decreased sharp acidic perception, full body mouthfeel, higher higher mouth watering, and an impression of the juicy notes of citrus fruit (orange, lemon) | taste effects on the acid perception ([8]; fumaric acid 0.0936% by weight): decreased sharp acidic perception, full body mouthfeel effects, higher sweet effects, and an impression of the full notes characteristic of sweet red & vanillic flavor types (vanilla, chocolate, raspberry, cherry, especially benzaldhyde) | taste effects on the acid perception ([8]; malic acid 0.1081% by weight): decreased sharp acidic perception, give fuller body, mouthfeel, higher mouthwatering, and an impression of the flesh and skin notes of fruit (apple) | taste effects on the acid perception ([8]; tartaric acid 0.121% by weight): decreased sharp acidic perception, full body mouthfeel, higher mouthwatering, more immediate (upfront hit), and an impression of the flesh of fruit (grape, apple, banana, pear-like) | taste description (Test on Eru Prestige): full salty, much more cheese bite, umami, lingering, long lasting | taste description [9]: much fuller, creamy, rich, less acidic | description by expert tasters [10]: beany, fatty, authentic, sweet | tasting result (trained panelists) [11]: more authentic butter taste, with more mouthfeel | taste description [12]: long lasting, juicy and fatty skin like very authentic, like eating the fruit instead of drinking a drink | description by expert tasters (Soy milk): clean, creamy, good masking of the soy bean taste, creamy and milky | taste of the chicken ([13]; 450 gram chicken filet, 2 minutes high fire and 5 minutes medium fire): more juicy, succulent, lingering more white meat | taste of the frying oil ([13]; after frying chicken filet): more savoury golden brown notes
